Experimental data taken from US20260000684A1, “CANNABINOID COMPOSITIONS AGAINST CANCER, THEIR IDENTIFICATION AND PERSONALIZATION OF CANNABIS-BASED CANCER THERAPY” (UNIVERZA V MARIBORU, priority 2022, published 2026).

Tests used:
[1] = test system: CaCo2; assay: Cell viability/proliferation; format: cell-based; settings: FIG. 10, preliminary analysis
Excerpt: (§1) Example 5: In a preliminary analysis, the inventors investigated the effect of 16 cannabinoid compounds (Δ9-THCV-C3, Δ9-THCVA-C3 A, Δ9-THCA-C5 A, Δ9-THC-C5, Δ8-THC-C5, CBN-C5, CBL-C5, CBLA-C5 A, (E)-CBG-C5, (E)-CBGA-C5 A, CBD-C5, CBDV-C3, CBDVA-C3, CBDA-C5, CBC-C5, and CBCA-C5 A) on cell viability/proliferation in two colorectal carcinoma cell lines (HCT116 and CaCo2) (FIG. 10).

[2] = test system: HCT116; assay: Cell viability/proliferation; format: cell-based; settings: FIG. 10, preliminary analysis
Excerpt: as §1

[3] = test system: melanoma cell lines (COLO38 and OCM-1); settings: CB2 and CB1 expressing melanoma cell lines COLO38 and OCM-1; cited from earlier work
[4] = test system: human A375, SK-MEL-28, and CHL-1 melanoma cell lines; settings: A375, SK-MEL-28, CHL-1; Armstrong et al.; cited from earlier work

Compound | effect in reducing cell viability [1] | effect in reducing cell viability [2] | viability [3] | effect of treatment on melanoma cell lines [4]
CCCCCc1cc(O)c2c(c1)OC(C)(CCC=C(C)C)C=C2 (racemic) [CBC, (±)-cannabichromene] | strongest effect in reducing cell viability | strongest effect in reducing cell viability | – | –
CCCCCc1cc(O)c2c(c1)OC(C)(C)[C@@H]1CC=C(C)C[C@@H]21 (relative stereo) [Δ8THC, (−)-Δ^8-trans-(6aR,10aR)-Δ^8-tetrahydrocannabinol] | strongest effect in reducing cell viability | strongest effect in reducing cell viability | – | –
CCCCCc1cc(O)c(C/C=C(\C)CCC=C(C)C)c(O)c1 [CBG, cannabigerol] | strongest effect in reducing cell viability | strongest effect in reducing cell viability | – | –
CCCCCc1cc(O)c2c(c1)OC(C)(C)c1ccc(C)cc1-2 [CBN, cannabinol] | strongest effect in reducing cell viability | strongest effect in reducing cell viability | – | –
Cc1c(C(=O)c2cccc3ccccc23)c2cccc3c2n1[C@H](CN1CCOCC1)CO3 [WIN55,212-2] | – | – | reduce viability in a CB1/CB2-independent manner | –
CCCCCc1cc(O)c2c(c1)OC(C)(C)[C@@H]1CCC(C)=C[C@@H]21 [Δ9THC, Δ^9-tetrahydrocannabinol, reference compound] | strongest effect in reducing cell viability | strongest effect in reducing cell viability | – | activation of autophagy, loss of cell viability, and activation of apoptosis
(−)-cannabidiol [CBD, reference compound] | strongest effect in reducing cell viability | strongest effect in reducing cell viability | – | –
